Patent publication US8192962B2, “Processes for detecting toxic substances” (Daikin Industries, Ltd., priority 2001, dated 2012)

System: Mitochondria-located protein genes
Assay: DNA chip mRNA expression in yeast, mitochondria-located protein genes (Table 2)
Assay type: cell-based, Saccharomyces cerevisiae S288C
Details: cells incubated two hours with the chemical substance
Description: Yeast (Saccharomyces cerevisiae S288C (α SUC2mal mel gap2 CUP1)) were incubated at 25° C. on YPD medium (yeast extract 1%, polypepton 2%, glucose 2%). One of toxic chemical substances was added to the cells at logarithmic growth phase, and the cells were further incubated for two hours. Cells were cultured without any chemical substance in the same condition, and were used as control. Concentrations of the chemical substances were defined to inhibit the growth of the yeast but not lead to death.
After completion of the incubation, the culture was centrifuged to collect the cells. To the cells, sodium acetate buffer (50 mM sodium acetate, 10 mM EDTA, 1% SDS) was added, and the mixture was shaken at 65° C. for five minutes, followed by returning to room temperature, and obtaining the supernatant, of which the procedures were repeated two times. To the supernatant, ½ amount of a solution of phenol/chloroform was added, and the mixture was centrifuged to give a supernatant, which was added with an equal amount of chloroform, and the mixture was centrifuged to give a supernatant. To the supernatant, an equal amount of isopropanol containing 0.3 M sodium acetate was added, and the mixture was allowed to stand at room temperature for 30 minutes, after which the mixture was centrifuged to give a sediment of the whole RNAs. Seventy % ethanol was added to the sediment, and the mixture was again centrifuged to give a sediment, which was then dried and dissolved in water. mRNA was isolated from the whole RNAs as followings. In view of the fact that a poly A chain is attached to the 3′ terminus of mRNA, a polynucleotide having a poly T structure which was immobilized on the surface of latex beads was used to trap the mRNA, and then the mRNA was washed and eluted with spine column (Oligotex-dT30<Super>mRNA Purification Kit, Takara). Reverse transcription of the mRNA was conducted with a reverse transcriptase (Super Script II Reverse Transcriptase; catalogue No. 18064-014, GibcoBRL) using fluorescence-labeled nucleotides to give cDNAs that were introduced with Cy3-dUTP or Cy5-dUTP during the reverse transcription.
The labeled cDNAs were dissolved in TE buffer (10mM Tris-HCl/1 mM EDTA, pH8.0), and the solution was dropped on the DNA chip containing the whole genes of yeast (DNA Chip Research Inc. Japan) so that the cDNAs were hybridized on the DNA chip at 65° C. for over 12 hours. The fluoresces intensity of the DNA chip was read with a scanner, and the ratio relative to the fluorescence intensity resulting from the absence of chemical substance was estimated as the following, which is shown in Tables 1 to 9: […]

Measured: The level of expressed mRNA in the presence of chemical substance/The level of expressed mRNA in the absence of chemical substance

C=CC=O [(14), acrolein]
1.1: yeast gene YDL181W | yeast gene YEL024W | yeast gene YMR152W | yeast gene YPL040C | yeast gene YPL135W
1.9: yeast gene YJL166W
0.6: yeast gene YBL099W | yeast gene YOR187W
1.3: yeast gene YCR046C | yeast gene YGR008C | yeast gene YIL155C | yeast gene YKL170W | yeast gene YMR035W | yeast gene YOR130C
0.8: yeast gene YBL030C | yeast gene YBR003W | yeast gene YBR221C | yeast gene YFL016C | yeast gene YKL148C | yeast gene YLR259C | yeast gene YML120C | yeast gene YMR083W | yeast gene YNL071W | yeast gene YOR142W | yeast gene YOR176W
2.1: yeast gene YJL096W | yeast gene YML054C
2.0: yeast gene YKL003C
2.3: yeast gene YBL038W | yeast gene YGR076C | yeast gene YKL142W
0.9: yeast gene YBR044C | yeast gene YER178W | yeast gene YGL187C | yeast gene YGR082W | yeast gene YMR089C | yeast gene YNL055C | yeast gene YNL104C
1.7: yeast gene YBR091C | yeast gene YBR185C | yeast gene YDL198C | yeast gene YLR395C
0.5: yeast gene YJR045C
1.0: yeast gene YBL022C | yeast gene YCL057W | yeast gene YLR348C | yeast gene YMR267W | yeast gene YOR037W | yeast gene YOR316C | yeast gene YPR047W
1.2: yeast gene YAL039C | yeast gene YBR122C | yeast gene YGL018C | yeast gene YGR028W | yeast gene YGR062C | yeast gene YGR244C | yeast gene YLL041C | yeast gene YLR295C | yeast gene YPL215W | yeast gene YPL262W
1.6: yeast gene YBR251W | yeast gene YGL191W | yeast gene YGR174C | yeast gene YHR008C | yeast gene YKL016C | yeast gene YLR038C | yeast gene YMR023C | yeast gene YOR020C | yeast gene YOR150W | yeast gene YPR037C
1.4: yeast gene YBR282W | yeast gene YDL067C | yeast gene YDR377W | yeast gene YEL039C | yeast gene YJL180C | yeast gene YKL141W | yeast gene YKL194C | yeast gene YML129C | yeast gene YOL096C | yeast gene YOR100C | yeast gene YPL134C
2.4: yeast gene YCR083W
0.7: yeast gene YJL133W | yeast gene YJR077C | yeast gene YJR121W | yeast gene YLR304C | yeast gene YMR203W | yeast gene YNL073W | yeast gene YNL256W | yeast gene YPR024W
1.5: yeast gene YDR079W | yeast gene YDR178W | yeast gene YDR231C | yeast gene YDR258C | yeast gene YDR298C | yeast gene YDR347W | yeast gene YDR529C | yeast gene YJL102W | yeast gene YKR066C | yeast gene YPR134W
